Measurements reported in patent US20240059725A1, “COUMARIN COMPOUNDS AND A PROCESS FOR PREPARATION THEREOF” (priority 2021, published 2024).
Converted amounts (≈) assume the structure as drawn.

Legend:
[1] = Cytotoxicity MTT assay in HEK 293 cell line; assay type: cell-based; settings: human, HEK 293 cells, 48 hr of treatment, read-out: IC-50 value (cytotoxicity)
Method: Human embryonic kidney HEK 293 cell line were cultured in complete DMEM (Dulbecco's modified eagle medium) high glucose medium with 10% foetal bovine serum and 1% Penicillin Streptomycin and grown at 37° C.in a humidified incubator with 5% CO2. The cells were grown in T-25 flasks till about 80% confluency and 5000cells/well were seeded in a 96 well cell culture plate.
After 24 hr the cells were treated with all the concentrations of the drug (compound (4)) in triplicates and incubated for 48 hr.
After 48 hr of incubation MTT was added at a concentration of 0.5 mg/ml and incubated at 37° C. for 4 hr. After 4 hr the media was discarded from each well and DMSO was added. After 30 mins of incubation at 37° C.the colorimetric data was taken at 570 nm.

[2] = tested on: RAW 264.7 cells; test: Flow cytometry analysis of Reactive Oxygen Species production (DCFDA) in LPS induced RAW cell line; assay type: cell-based; settings: RAW cell line treated along with LPS, 48 hours
Method: RAW cell line was cultured in a T 25 flask in DMEM. After the cells reached confluency evel up to 90 percent, they were seeded in 6 well plates at 1 lakh cells/well. After adhesion of cells drugs were treated along with LPS and kept for 48 hours.
Flow cytometry analysis of Reactive Oxygen Species production on RAW cell line:
After 48 hr of treatment cells were harvested and stained with DCFDA and run-on flow cytometer.

[3] = tested on: HEK cell line; test: ROS production in HEK cell line; assay type: cell-based, Human
[4] = tested on: Human breast adenocarcinoma (MDA-MB-468) cell line; test: Anticancer activity, MTT assay against MDA-MB-468; assay type: cell-based; settings: for IC50: Homo sapiens, MDA-MB-468, interpolated from graph (FIG. 6)
Method: (§1) The anticancer activity of the compound (3) denoted as “P” and compound (4) denoted as “DP” was assessed invitro by MTT 3-(4,5-dimethylthiazol-2-yl)-2,5-diphenyltetrazolium bromide assay against Human colon carcinoma (HCT-116) cell lines and Human breast adenocarcinoma (MDA-MB-468) respectively.
(§2) RPMI-1640, fetal bovine serum (FBS), penicillin, streptomycin was procured from HiMedia (Mumbai, India). Doxorubicin, MTT 3-(4,5-dimethylthiazol-2-yl)-2,5-diphenyltetrazolium bromide were procured from Sigma Aldrich (USA). The chemicals used were of analytical or HPLC grade. Human breast adenocarcinoma (MDA-MB-468), Human colon carcinoma (HCT-116) was procured from NCCS, Pune, India. The cell line was grown in the RPMI-1640 with 2 mM L-glutamine, supplemented with 10% FBS, penicillin (100 IU/mL) and streptomycin (100 μg/mL) at 37° C. in a 95% humidified CO2 incubator with 5% CO2 atmosphere. The cell lines were passaged twice weekly for maintaining sub-confluent state.
(§3) MTT assay was used as cell viability assay. The principle of the assay lies in the fact that the MTT is reduced to formazan crystals by mitochondrial dehydrogenase of the viable cells. The anticancer activity of compounds (3) and (4) was assessed invitro by MTT 3-(4,5-dimethylthiazol-2-yl)-2,5-diphenyltetrazolium bromide assay based on the methods by Mosmann, T and Bose et.al. (Mosmann, T. Journal of Immunological methods. 1983, 65, 55-63; and Bose, D. S.; Idrees, M.; Jakka, N. M.; Rao, J. V. J. Comb. Chem. 2010, 12, 100-110). Doxorubicin (DXN) a known anticancer drug was used as a reference compound in the assay. The treated and untreated cells were washed with PBS (Phosphate buffer saline) and MTT (100 μg/ml) was added and incubated at 37° C. for 5 hr. The MTT was then removed, and the formazan crystals were dissolved by adding DMSO. The absorbance at 540 nm represents the viable cells. The absorbance was recorded using Multiskan spectrum, Thermo scientific. […] The absorbance from the untreated cells was defined as 100% viable cells. The % viable cells were plotted (Y-axis) against concentration (X-axis). The IC50 values were interpolated from the graphs of FIGS. 5 and 6.

[5] = tested on: Human colon carcinoma (HCT-116) cell line; test: Anticancer activity, MTT assay against HCT-116; assay type: cell-based; settings: for IC50: Homo sapiens, HCT-116, interpolated from graph (FIG. 5)
Method: as §1, §2, §3

Row | Structure (SMILES) | IC50 at 48 h [1] | ROS production [2] | ROS production [3] | IC50 [4] | Percentage of cell death ([4]; MDA-MB-468, 1.0 μg/mL) | Percentage of cell death ([4]; MDA-MB-468, 2.0 μg/mL) | Percentage of cell death ([4]; MDA-MB-468, 5.0 μg/mL) | Percentage of cell death ([4]; MDA-MB-468, 10.0 μg/mL) | Percentage of cell death ([4]; MDA-MB-468, 25.0 μg/mL) | Percentage of cell death ([5]; HCT-116, 1.0 μg/mL) | Percentage of cell death ([5]; HCT-116, 2.0 μg/mL) | Percentage of cell death ([5]; HCT-116, 5.0 μg/mL) | Percentage of cell death ([5]; HCT-116, 10.0 μg/mL) | Percentage of cell death ([5]; HCT-116, 25.0 μg/mL) | IC50 [5]
1 | O=C(OCC1OC(O)C(O)C(O)C1O)c1cc2ccccc2oc1=O (stereo not drawn) [Compound (4)] | > 1000 mg/L | able to produce ROS in all concentrations | no ROS production | 3.2 mg/L (≈ 9.08 µM) | 25.71 ± 0.003% | 42.27 ± 0.026% | 66.49 ± 0.007% | 78.66 ± 0.018% | 86.10 ± 0.015% | – | – | – | – | – | –
2 | COc1cccc2c1C(=O)c1c(O)c3c(c(O)c1C2=O)C[C@@](O)(C(=O)CO)C[C@@H]3O[C@H]1C[C@H](N)[C@H](O)[C@H](C)O1 [DXN, Doxorubicin, reference compound] | – | – | – | 5 mg/L (≈ 9.2 µM) | 16.12 ± 0.001% | 31.68 ± 0.012% | 52.34 ± 0.015% | 63.76 ± 0.0031% | 73.45 ± 0.060% | 16.12 ± 0.001% | 31.68 ± 0.012% | 52.34 ± 0.015% | 63.76 ± 0.0031% | 73.45 ± 0.060% | 5 mg/L (≈ 9.2 µM)
3 | CC1(C)OC2OC(COC(=O)c3cc4ccccc4oc3=O)C3OC(C)(C)OC3C2O1 (stereo not drawn) [Compound (3)] | – | – | – | – | – | – | – | – | – | 25.81 ± 0.015% | 44.01 ± 0.028% | 61.45 ± 0.006% | 75.01 ± 0.076% | 88.64 ± 0.018% | 3.8 mg/L (≈ 8.79 µM)
